Earlier results in publication PMC4315033, “The regulation of muscle mass by endogenous glucocorticoids” (Frontiers in Physiology, 2015).

How the values were obtained:
[1] = tested on: mineralocorticoid receptor; set-up: method as in Chapman et al., 2013; details: ref Chapman et al., 2013
TRAF6 = tested on: TRAF6; set-up: method as in Sun et al., 2014; details: pharmacologic doses; ref Sun et al., 2014
cultured myotubes [2] = tested on: cultured myotubes; set-up: method as in Lokireddy et al., 2012; details: ref Lokireddy et al., 2012
miR27a and b = tested on: miR27a and b; set-up: method as in Allen and Loh, 2011; details: ref Allen and Loh, 2011
muscle atrophy = tested on: muscle atrophy; set-up: method as in Hu et al., 2009; details: ref Hu et al., 2009
GR^dim mice = tested on: GR^dim mice; set-up: method as in Reichardt et al., 1998; Tuckermann et al., 1999; details: ref Reichardt et al., 1998, Tuckermann et al., 1999
muscle protein breakdown = tested on: muscle protein breakdown; set-up: method as in Zamir et al., 1992; details: ref Zamir et al., 1992
MAFbx, MuRF1, and Foxo1 = tested on: MAFbx, MuRF1, and Foxo1; set-up: method as in Braun et al., 2011; details: inflammatory cytokines delivered directly into the brain; ref Braun et al., 2011
muscle explants = tested on: muscle explants; set-up: method as in Tiao et al., 1996; details: juvenile rats, explants harvested 16 h after CLP; ref Tiao et al., 1996
MAFbx and MuRF1 = tested on: MAFbx and MuRF1; set-up: method as in Frost et al., 2007; details: adult rats, ref Frost et al., 2007
muscle wasting = tested on: muscle wasting; set-up: method as in Song et al., 2005; details: angiotensin II infused at concentrations mimicking endogenous production in CKD, co-administration; ref Song et al., 2005
cultured myotubes [3] = tested on: cultured myotubes; set-up: method as in Biedasek et al., 2011; details: ref Biedasek et al., 2011

SMILES: C[C@]12CCC(=O)C=C1CC[C@@H]1[C@@H]2[C@@H](O)C[C@@]2(C)[C@H]1CC[C@]2(O)C(=O)CO [Cortisol]
- affinity for mineralocorticoid receptor relative to GR [1]: higher affinity

SMILES: C[C@@H]1C[C@H]2[C@@H]3CCC4=CC(=O)C=C[C@]4(C)[C@@]3(F)[C@@H](O)C[C@]2(C)[C@@]1(O)C(=O)CO [dexamethasone]
- TRAF6 expression (TRAF6): increase
- Mul1 expression (cultured myotubes [2]): induces
- mitophagy (cultured myotubes [2]): induces
- levels of miR27a and b in skeletal muscle (miR27a and b): decrease
- muscle atrophy, given in isolation (muscle atrophy; dose estimated to mimic endogenous concentrations in diabetic animals): insufficient to evoke substantial atrophy
- muscle atrophy in diabetic adrenalectomized mice (muscle atrophy; same dose, streptozotocin-induced diabetes): restores normal muscle atrophy
- PMA-induced skin inflammation (GR^dim mice): continued to suppress
- expression of genes regulating carbohydrate balance (GR^dim mice): failed to alter

SMILES: CC#C[C@]1(O)CC[C@H]2[C@@H]3CCC4=CC(=O)CCC4=C3[C@@H](c3ccc(N(C)C)cc3)C[C@@]21C [mifepristone]
- half-life (in words) (in vivo): very short
- half-life (rodents, ref Heikinheimo et al., 1994): 1 to 2 h
- mortality (muscle protein breakdown; concurrent cytokine and mifepristone administration): ~50%
- induction of muscle protein degradation brought about by tumor necrosis factor (TNF) (muscle protein breakdown; concurrent mifepristone): attenuates
- proteolysis accompanied by interleukin-1 α administration (muscle protein breakdown; concurrent mifepristone): not blocked
- induction of MAFbx, MuRF1, and Foxo1 in muscle (MAFbx, MuRF1, and Foxo1): blocked
- tyrosine release from muscle explants (muscle explants): significantly reduced
- induction of MAFbx and MuRF1 in septic rats (MAFbx and MuRF1; CLP, 24 h): failed to alter
- induction of MAFbx and MuRF1 by dexamethasone (MAFbx and MuRF1; similar time point): effectively blocking
- angiotensin II induced muscle wasting (muscle wasting): reversed
- activity at other steroid receptors (other steroid receptors): has activity

SMILES: C[C@]12CCC(=O)C=C1CC[C@@H]1[C@@H]2C(=O)C[C@@]2(C)[C@H]1CC[C@]2(O)C(=O)CO [cortisone]
- proteolysis and atrophy in cultured myotubes (cultured myotubes [3]): capable of inducing
- binding to the GR (GR): does not bind
